Reference: patent publication US4272437A, “Antibacterial agents, and 4-thio azetidinone intermediates” (priority 1979, dated 1981)
Converted amounts (≈) assume the structure as drawn. Where two headings read alike, the source gives them in different places.

How the values were obtained:
[1] = test system: β-lactamases; details: literature; cited from earlier work
[2] = test system: Gram-negative and Gram-positive organisms; details: literature; cited from earlier work
[3] = test system: Pr. morganii A-15153; test: MIC, tube dilution, Proteus morganii A15153; type: cell-based; details: Morganella morganii, A15153, Proteus morganii A15153; overnight 37° C.; read-out: Minimum Inhibitory Concentration (M.I.C.)
Description: (§1) Representative compounds of the present invention were subjected to in vitro antibiotic screening against a variety of microorganisms.

[4] = test system: Staph. aureus A-9537 and 50% serum; test: MIC, tube dilution, Staph. aureus A9537 + 50% serum; type: cell-based, Staphylococcus aureus; details: Staphylococcus aureus, overnight 37° C., read-out: Minimum Inhibitory Concentration (M.I.C.)
Description: as §1

[5] = test system: Staph. aureus A-9537; test: MIC, tube dilution, Staphylococcus aureus A9537; type: cell-based; details: Staphylococcus aureus, A9537, Staph. aureus A9537; overnight 37° C., Nutrient Broth; read-out: Minimum Inhibitory Concentration (M.I.C.)
Description: as §1

[6] = test system: Ser. marcescens A-20019; test: MIC, tube dilution, Serratia marcescens A20019; type: cell-based; details: Serratia marcescens, A20019, Serratia marcescens A20019; overnight 37° C.; read-out: Minimum Inhibitory Concentration (M.I.C.)
Description: as §1

[7] = test system: E. coli A-15119; test: MIC, tube dilution, Escherichia coli A15119; type: cell-based; details: Escherichia coli, A15119, E. coli A15119; overnight 37° C.; read-out: Minimum Inhibitory Concentration (M.I.C.)
Description: as §1

[8] = test system: Str. faecalis A-20688; test: MIC, tube dilution, Streptococcus faecalis A20688; type: cell-based; details: Enterococcus faecalis, A20688, Str. faecalis A20688; overnight 37° C.; read-out: Minimum Inhibitory Concentration (M.I.C.)
Description: as §1

[9] = test system: Proteus rettgeri A21203; test: MIC, tube dilution, Proteus rettgeri A21203; type: cell-based; details: Providencia rettgeri, A21203, Proteus rettgeri A21203; overnight 37° C.; read-out: Minimum Inhibitory Concentration (M.I.C.)
Description: as §1

[10] = test system: K. pneumoniae A-15130; test: MIC, tube dilution, Klebsiella pneumoniae A15130; type: cell-based; details: Klebsiella pneumoniae, A15130, K. pneumoniae A15130; overnight 37° C.; read-out: Minimum Inhibitory Concentration (M.I.C.)
Description: as §1

[11] = test system: Str. pneumoniae A-9585; test: MIC, tube dilution, Streptococcus pneumoniae A9585; type: cell-based; details: Streptococcus pneumoniae, A9585, Str. pneumoniae A9585; overnight 37° C., Nutrient Broth; read-out: Minimum Inhibitory Concentration (M.I.C.)
Description: as §1

[12] = test system: E. coli A-20341-1; test: MIC, tube dilution, Escherichia coli A20341-1; type: cell-based; details: Escherichia coli, A203411, E. coli A20341-1; overnight 37° C.; read-out: Minimum Inhibitory Concentration (M.I.C.)
Description: as §1

[13] = test system: Ps. aeruginosa A-9843A; test: MIC, tube dilution, Pseudomonas aeruginosa A9843A; type: cell-based; details: Pseudomonas aeruginosa, A9843A, read-out: Minimum Inhibitory Concentration (M.I.C.), Pseudomonas aeruginosa A9843A; overnight 37° C.
Description: as §1

[14] = test system: S. aureus A9537; test: In vivo protection of mice, lethal infection with S. aureus A9537; details: Staphylococcus aureus, 2 treatments, 1 × 10^6 organisms, read-out: PD50
Method: (§2) Representative compounds of the present invention were also tested in vivo in mice and their PD50 (dose of compound in mg/kg required to protect 50% of the treated mice against an otherwise lethal infection of a micro-organism) values determined with respect to the test organisms shown below.

[15] = test system: Staph. aureus (Meth-Res) A-15097; test: MIC, tube dilution, Staphylococcus aureus A15097 (Meth-Res); type: cell-based; details: Staphylococcus aureus, Staph. aureus A15097 (Meth-Res); overnight 37° C.; read-out: Minimum Inhibitory Concentration (M.I.C.)
Description: as §1

[16] = test system: Klebsiella species A20468; test: MIC, tube dilution, Klebsiella species A20468; type: cell-based; details: Klebsiella species (K. pneumoniae) A20468; overnight 37° C.; read-out: Minimum Inhibitory Concentration (M.I.C.)
Description: as §1

[17] = test system: Staph. aureus (Pen-Res) A-9606; test: MIC, tube dilution, Staphylococcus aureus A9606 (Pen-Res); type: cell-based; details: Staphylococcus aureus, Staph. aureus A9606 (Pen-Res); overnight 37° C.; read-out: Minimum Inhibitory Concentration (M.I.C.)
Description: as §1

[18] = test system: Ent. cloacae A-9656; test: MIC, tube dilution, Enterobacter cloacae A9656; type: cell-based; details: Enterobacter cloacae, A9656, Enterobacter cloacae A9656; overnight 37° C.; read-out: Minimum Inhibitory Concentration (M.I.C.)
Description: as §1

[19] = test system: Proteus vulgaris A21559; test: MIC, tube dilution, Proteus vulgaris A21559; type: cell-based; details: Proteus vulgaris, A21559, Proteus vulgaris A21559; overnight 37° C.; read-out: Minimum Inhibitory Concentration (M.I.C.)
Description: as §1

[20] = test system: Ent. cloacae A-9659; test: MIC, tube dilution, Enterobacter cloacae A9659; type: cell-based; details: Enterobacter cloacae, A9659, Enterobacter cloacae A9659; overnight 37° C.; read-out: Minimum Inhibitory Concentration (M.I.C.)
Description: as §1

[21] = test system: Pr. mirabilis A-9900; test: MIC, tube dilution, Proteus mirabilis A9900; type: cell-based; details: Proteus mirabilis, A9900, Proteus mirabilis A9900; overnight 37° C.; read-out: Minimum Inhibitory Concentration (M.I.C.)
Description: as §1

[22] = test system: Ps. aeruginosa A-21213; test: MIC, tube dilution, Pseudomonas aeruginosa A21213; type: cell-based; details: Pseudomonas aeruginosa, A21213, Pseudomonas aeruginosa A21213; overnight 37° C.; read-out: Minimum Inhibitory Concentration (M.I.C.)
Description: as §1

[23] = test system: Str. pyogenes A-9604; test: MIC, tube dilution, Streptococcus pyogenes A9604; type: cell-based; details: Streptococcus pyogenes, A9604, Str. pyogenes A9604; overnight 37° C., Nutrient Broth; read-out: Minimum Inhibitory Concentration (M.I.C.)
Description: as §1

[24] = Mouse blood levels after intramuscular administration; type: in vivo; details: average of 6 mice, read-out: Mouse blood level
Method: Mouse blood levels after intramuscular administration of representative compounds of the present invention were determined and are reported in the table below.

[25] = test system: E. coli A15119; test: In vivo protection of mice, lethal infection with E. coli A15119; details: Escherichia coli, IM, 2 treatments, 7 × 10^5 organisms, read-out: PD50
Method: as §2

[26] = stability of isolated product (light, handling); type: physicochemical

**Q.** Which results are given for `CC(=O)NC=C[S+]([O-])C1=C(C(=O)O)N2C(=O)C(C(C)OS(=O)(=O)O)C2C1` (centres unmarked)?
**A.** β-lactamase inhibition [1]: β-lactamase inhibitor; antibacterial activity [2]: some antibacterial activity

**Q.** Which β-lactamase inhibition [1] does the source give for `COC(=O)C1=C(C)OC2C(NC(c3ccccc3)(c3ccccc3)c3ccccc3)C(=O)N12` (centres unmarked) here?
**A.** weak inhibitor of β-lactamases

**Q.** For `N[C@H]1C[C@@H](C2=C(C(=O)O)N3C(=O)C[C@H]3S2)C1` [Example 78, 2-(cis-3'-Aminocyclobutyl)penem-3-carboxylic Acid], which MIC [3] is on record?
**A.** 8 µg/mL (≈ 33.3 µM)

**Q.** And the MIC [4]?
**A.** 2 µg/mL

**Q.** What about the MIC [5] of the same compound?
**A.** 0.13 µg/mL (≈ 0.541 µM)

**Q.** And the MIC [6]?
**A.** 4 µg/mL (≈ 16.6 µM)

**Q.** And the MIC [7]?
**A.** 2 µg/mL (≈ 8.32 µM)

**Q.** And the MIC [8]?
**A.** 16 µg/mL (≈ 66.6 µM)

**Q.** And the MIC [9]?
**A.** 4 µg/mL (≈ 16.6 µM)

**Q.** And the MIC [10]?
**A.** 4 µg/mL (≈ 16.6 µM)

**Q.** What about the MIC [11] of the same compound?
**A.** 0.03 µg/mL (≈ 0.125 µM)

**Q.** And the MIC [12]?
**A.** 16 µg/mL (≈ 66.6 µM)

**Q.** And the MIC [13]?
**A.** 16 µg/mL (≈ 66.6 µM)

**Q.** And the ED50 ([14]; A9537, im, IM)?
**A.** 0.63 mg/kg

**Q.** And the ED50 ([14]; A9537, po, PO)?
**A.** 2.5 mg/kg

**Q.** What about the MIC [15] of the same compound?
**A.** 8 µg/mL (≈ 33.3 µM)

**Q.** What about the MIC [16] of the same compound?
**A.** > 125 µg/mL

**Q.** And the MIC [17]?
**A.** 16 µg/mL (≈ 66.6 µM)

**Q.** And the MIC [18]?
**A.** 4 µg/mL (≈ 16.6 µM)

**Q.** And the MIC [19]?
**A.** 4 µg/mL (≈ 16.6 µM)

**Q.** What about the MIC [20] of the same compound?
**A.** 4 µg/mL (≈ 16.6 µM)

**Q.** And the MIC [21]?
**A.** 4 µg/mL (≈ 16.6 µM)

**Q.** And the MIC [22]?
**A.** > 125 µg/mL

**Q.** What about the MIC [23] of the same compound?
**A.** 0.06 µg/mL (≈ 0.25 µM)

**Q.** And the concentration at 10 min ([24]; 10 minutes after IM 40 mg/kg)?
**A.** 29700 ng/mL

**Q.** What about the concentration at 20 min ([24]; 20 minutes after IM 40 mg/kg) of the same compound?
**A.** 19300 ng/mL

**Q.** What about the concentration at 0.5 h ([24]; 30 minutes after IM 40 mg/kg) of the same compound?
**A.** 12600 ng/mL

**Q.** And the concentration at 0.75 h ([24]; 45 minutes after IM 40 mg/kg)?
**A.** 6600 ng/mL

**Q.** What about the concentration at 1 h ([24]; 60 minutes after IM 40 mg/kg) of the same compound?
**A.** < 5000 ng/mL

**Q.** And the concentration at 1.5 h ([24]; 90 minutes after IM 40 mg/kg)?
**A.** < 5000 ng/mL

**Q.** What about the concentration at 2 h ([24]; 120 minutes after IM 40 mg/kg) of the same compound?
**A.** < 5000 ng/mL

**Q.** What about the ED50 [25] of the same compound?
**A.** 28 mg/kg

**Q.** For `C[C@@H](O)[C@H]1C(=O)N2C(C(=O)O)=C(SCCN)C[C@H]12` [thienamycin], which antibacterial activity [2] is on record?
**A.** highly potent broad-spectrum antibiotic

**Q.** For `CC(=O)OC[C@H]1C(=O)N2C(C(=O)O)=C(CN)S[C@H]12` (relative stereo) [cis 6-Acetoxymethyl-2-aminomethylpenem-3-carboxylic Acid], which stability [26] is on record?
**A.** unstable
